From patent US8247444B2, “Anti-tumor effect of dimeric phthalide compound” (priority 2007, dated 2012)
≈ marks a conversion by molar mass, not a printed value.

Assays:
Bel-7402 [1] = test: Growth inhibition of sensitive and drug-resistant cell lines (IC50), Bel-7402; type: cell-based; details: Homo sapiens; Bel-7402 cells, Table 1
Experimental: (§1) In the following Examples, the cell lines used were H1299, H446 (human lung cancer cell line), KB (human oral cavity carcinoma cell line), NB4, HL-60 (human leukemic cell line), U251 ? U87MG (human glioblastoma cell line), MCF-7 (human breast carcinoma cell line), Bel-7402 and SMMC7721 (human hepatic cellular cancer cell line), SW620 (human colon carcinoma cell line), HDF (human dermis fibroblast), HUVEC (human umbilical vein endothelial cell line) and Kasumi-1 (human acute myeloid leukaemia cell line), all from American Type Culture Collection (ATCC).
(§2) The human lung cancer cell H1299 and H446, glioma cell U251 and U87MG, and human hepatic cellular cancer Bel-7402 cell in logarithmic growth phase were digested with pancreatic enzyme, and then suspended into DMEM or RPMI1640 containing 10% fetal bovine serum. The leukemic cells Kasumi-1 need no digestion, and were suspended into RPMI1640 containing 10% fetal bovine serum directly after centrifugalization. The cell density was adjusted to 1×10^4 cells/ml through cell counting, and the cell suspensions were seeded into a 96-well plate respectively, 100 μl/well, totally 6 groups of cells. The adherent cells were cultured overnight, the suspended cells were added different concentration gradients of dimeric phthalide compounds (S1-S6) directly, n=6 for each concentration of a single agent. The final volume was 200 ul, and the balance was supplemented with the culture medium. The plate was then incubated for 68 hours in 37° C., saturated humidity, 5% CO2 cell incubator. The medium was aspirated and 72 μl/well fresh culture medium was added. 8 μl […] (CCK-8) was added into each well and cultured for 2 hours. The absorbance was measured at 450 nm. The results were calculated as the 50% inhibiting drug concentration, i.e. IC50, using Sigmoidal simulation function by software Origin 7.0.
(§3) The cancer cells (various cell lines as shown in table 1 or FIG. 3) were seeded 1×10^3 cells per well into a 96-well plate. The suspended cells were added different concentration of dimeric phthalide compounds (S1-S6) directly, and the adherent cells were cultured overnight and added different concentration of dimeric phthalide compounds (S1-S6). The different concentration of dimeric phthalide compounds were divided into 10 groups: 0, 0.1, 0.5, 1, 5, 10, 20, 40, 80, 160 μg/ml, n=6 for each concentration.
(§4) According to the method described in Example 2, […] was detected and IC50 was calculated. The experiment was repeated for 3 times.
(§5) The growth inhibition effects of dimers of S1-S6 on its sensitive cell lines as well as the drug-resistant sub-strains (IC50 (μg/ml)) were shown in table 1 and FIG. 3.

HUVEC = test: Vascular endothelial cell inhibition assay (CCK-8), HUVEC; type: cell-based; details: Homo sapiens, 72 h
Experimental: (§6) 2×10^3 cells were seeded into a 96-well plate and cultured for 24 h. S1-S6 of different concentrations (0, 0.01, 0.1, 0.5, 1, 2.5, 5, 10, 20, 40, 80, 160 μg/ml, respectively) were added and incubated for 72 h, n=6 for each concentration. The inhibition of cell proliferation was detected by CCK-8 assay, the results were calculated as IC50, as describe in Example 3.

HL-60, H1299, U251 cells = test: Inducing cell death (Rh123/PI flow cytometry); type: cell-based, human; details: 48 h, FIG. 5
Experimental: S1-S6 of different concentrations (as shown in FIG. 5) were added into HL-60, H1299, U251 cells under good growing conditions. The cells were cultured for 48 h, and collected. The cells were incubated with rhodamine 123 (Rh123) of the final concentration of 10 μg/ml for 20 min at 37° C., and then washed with pre-cooled PBS twice. The cells were suspended into PBS, and PI of final concentration of 25 μg/ml was added. After incubated in the dark at room temperature for 15 min, mitochondria membrane potential and PI positive cells were detected by flow cytometry, the death rate was calculated as the rate of PI positive cells.

MCF-7 = test: Growth inhibition of sensitive and drug-resistant cell lines (IC50), MCF-7; type: cell-based; details: Homo sapiens, MCF7; MCF-7 cells
Experimental: as §1, §2, §3, §4, §5

KB [2] = test: Growth inhibition of sensitive and drug-resistant cell lines (IC50), KB; type: cell-based; details: Homo sapiens; KB cells, Table 1
Experimental: as §1, §2, §3, §4, §5

SMMC-7721 = test: Growth inhibition of sensitive and drug-resistant cell lines (IC50), SMMC-7721; type: cell-based; details: Homo sapiens; SMMC-7721 cells
Experimental: as §1, §2, §3, §4, §5

MCF-7/Adr = test: Growth inhibition of sensitive and drug-resistant cell lines (IC50), MCF-7/Adr; type: cell-based; details: Homo sapiens, NCI/ADR-RES; MCF-7/Adr drug-resistant cells
Source text: (§7) HL-60/ADR, MCF-7/ADR, K562/ADR, Bel-7402/5-FU, KBV200, SMMC-7721/Adr were respectively chemotherapeutics Adriamycin (ADR), 5-Fluorouracil (5-FU) or vincristine (VCR) drug-resistant sub-stains of HL-60, MCF-7, K562, Bel-7402, KB, SMMC-7721 cells (all from Chinese Academy of Medical Sciences). NB4-R2 was all trans-retinoic acid (ATRA) drug-resistant sub-stain (from Pathophysiology Research Department of Shanghai JiaoTong University). The main drug-resistance mechanism of K562/ADR was high expression of P-glycoprotein (P-gp), along with increased expression of Bcl-2. In addition to high expression of P-gp, the drug-resistance mechanism of MCF-7/ADR also related to the high expression of Breast Cancer Resistant Protein (BCRP). The main drug-resistance mechanism of HL-60/ADR was high expression of Multidrug Resistance Protein 1 (MRP1), along with high expression of Bcl-2, Bcl-xL. […] The main drug-resistance mechanism of KBV200 was high expression of P-gp and its increased activity. The drug-resistance mechanism of NB4-R2 on ATRA was mutation in the RAR gene locus.
as §2, §3, §4, §5

Bel-7402 [3] = test: Vascular endothelial cell inhibition assay (CCK-8), Bel-7402; type: cell-based; details: Homo sapiens, 72 h, CCK-8, Table 2
Experimental: as §6

[4] = tested on: H1299, H446, U251, U87MG, Bel-7402 and Kasumi-1 cells; test: Inhibition effects on proliferation (CCK-8), various human cancer cells; type: cell-based; details: FIG. 2, 68 h
Experimental: as §2

HDF = test: Vascular endothelial cell inhibition assay (CCK-8), HDF; type: cell-based; details: Homo sapiens, 72 h
Experimental: as §6

K562/Adr = test: Growth inhibition of sensitive and drug-resistant cell lines (IC50), K562/Adr; type: cell-based; details: Homo sapiens; K562/Adr drug-resistant cells
Source text: as §7, §2, §3, §4, §5

[5] = tested on: secretion of VEGF in H1299 cell; test: VEGF in supernatant of tumor cell H1299 culture (VEGF-ELISA); type: cell-based, human; details: H1299, compound 5 μg/ml, 24 h; for inhibition at 5 µg/mL: Homo sapiens, NCI-H1299, read-out: Inhibition rate of VEGF secretion
Experimental: Assay of vascular endothelial cell growth factor (VEGF) in supernatant of tumor cell H1299 culture. The cell was seeded into a 24-well plate (n=3 for each sample). H1299 cell was treated with S1-S6 respectively and cultured for 24 h. The culture supernatants from each group were collected and operated according to the instruction of VEGF-ELISA kit (JIN MEI Corporation). The samples were added, incubated, washed and detected at 450 nm for OD values of each sample. The standard curve was obtained by using different dose of VEGF standards and the secretory volume of VEGF in the supernatant was calculated.

K562 = test: Growth inhibition of sensitive and drug-resistant cell lines (IC50), K562; type: cell-based; details: Homo sapiens; K562 cells
Experimental: as §2, §3, §4, §5

SMMC-7721/Adr = test: Growth inhibition of sensitive and drug-resistant cell lines (IC50), SMMC-7721/Adr; type: cell-based; details: Homo sapiens; SMMC-7721/Adr drug-resistant cells
Source text: as §7, §2, §3, §4, §5

KB [6] = test: Vascular endothelial cell inhibition assay (CCK-8), KB; type: cell-based; details: Homo sapiens, 72 h, CCK-8, Table 2
Experimental: as §6

Bel-7402/5-Fu = test: Growth inhibition of sensitive and drug-resistant cell lines (IC50), Bel-7402/5-Fu; type: cell-based; details: Homo sapiens, Bel7402/5-FU; Bel-7402/5-Fu drug-resistant cells
Source text: as §7, §2, §3, §4, §5

KBv200 = test: Growth inhibition of sensitive and drug-resistant cell lines (IC50), KBv200; type: cell-based; details: Homo sapiens; KBv200 drug-resistant cells
Source text: as §7, §2, §3, §4, §5

[7] = tested on: drug-resistant cells of different mechanisms and sensitive cells; test: Overcome drug resistance: efficacy on drug-resistant cells compared with sensitive cells; type: cell-based, human; details: table 1 and FIG. 3
Experimental: as §3, §4

[8] = tested on: U87MG, H1299 and HL-60 heterograft tumors; test: Inhibition of the growth of nude mouse heterograft tumors; type: in vivo, Balb/c male nude mice; details: intraperitoneal; S4 25 mg/kg, S6 30 mg/kg, S1 32 mg/kg, BP 250 mg/kg; 4 weeks; FIG. 9
Experimental: Experimental grouping: Balb/c male nude mice were used, each weighted 18-22 g, and three assays were performed. The mice were seeded with U87MG, H1299 and HL-60 respectively. The animals were divided into three groups for each experiment, one as control, one was administered with the dimeric phthalide compounds, and one was administered with monomers of phthalide compound, 6 animals for each group.
For the group which was administered with monomers of phthalide compound, we used n-butylidenephthalide (BP) (Sigma) as active ingredient for tumor suppression, the compound had the structure as follows:
Experimental Process The H1299, HL-60 or U87MG cells growing in logarithmic phase were used. […] When the tumors had gown into 0.1-0.5 cm^3 (about 7-10 days), the animals were intraperitoneal injected with the dimeric phthalide compound S4 (25 mg/kg), S6 (30 mg/kg), S1 (32 mg/kg), each 200 μl; for the group of monomers of phthalide compound, the mice were intraperitoneal injected with n-butylidenephthalide (250 mg/kg); the control group was administered with equal volume of vehicle. The animals were sacrificed after 4 weeks, and the subcutaneous tumors were separated. Photographs were taken (FIG. 9A) and the tumors were weighted (FIG. 9B).

| IC50 (Bel-7402 [1]) | IC50 (MCF-7) | IC50 (KB [2]) | IC50 (SMMC-7721) | IC50 (MCF-7/Adr) | IC50 (Bel-7402 [3]) | IC50 (K562/Adr) | IC50 (K562) | IC50 (SMMC-7721/Adr) | IC50 (KB [6]) | IC50 (Bel-7402/5-Fu) | Compound | IC50 (HUVEC) | inducing decrease of cell mitochondria membrane potential and cell death (HL-60, H1299, U251 cells) | inhibition effect on proliferation of various human cancer cells [4] | IC50 (HDF) | Supernatant VEGF [5] | inhibition at 5 µg/mL [5] | IC50 (KBv200) | efficacy on drug-resistant cells compared with sensitive cells [7] | tumor inhibition effect [8] |
| --- | --- | --- | --- | --- | --- | --- | --- | --- | --- | --- | --- | --- | --- | --- | --- | --- | --- | --- | --- | --- |
| 16.4 ± 1.94 µg/mL (≈ 43.2 µM) | 18.4 ± 2.8 µg/mL (≈ 48.5 µM) | 15.5 ± 3.22 µg/mL (≈ 40.8 µM) | 19.4 ± 3.12 µg/mL (≈ 51 µM) | 20.3 ± 2.12 µg/mL (≈ 53.4 µM) | 30.4 µg/mL (≈ 79.9 µM) | 12.4 ± 1.01 µg/mL (≈ 32.5 µM) | 11.5 ± 0.831 µg/mL (≈ 30.3 µM) | 22.7 ± 2.55 µg/mL (≈ 59.6 µM) | 21.4 µg/mL (≈ 56.2 µM) | 17.6 ± 3.68 µg/mL (≈ 46.1 µM) | CCC/C=C1\OC(=O)C2=C1CCC1C2[C@@]23CC[C@@H]1C=C2C(=O)O/C3=C\CCC (stereo partly drawn) [S4] | 4.14 µg/mL (≈ 10.9 µM) | best effect of inducing cell death | best inhibition effects on most of the cancer cells | 82.2 µg/mL (≈ 216 µM) | 234.00 ± 34.03 ng/ml/10^6 cells | 37.3% | 17.4 ± 2.03 µg/mL (≈ 45.9 µM) | the best effect | significant tumor inhibition effects |
| 30.2 ± 2.17 µg/mL (≈ 79 µM) | 28.5 ± 1.91 µg/mL (≈ 74.6 µM) | 16.4 ± 2.05 µg/mL (≈ 42.9 µM) | 36 ± 3.92 µg/mL (≈ 94.2 µM) | 29.2 ± 2.14 µg/mL (≈ 76.4 µM) | 29.7 µg/mL (≈ 77.6 µM) | 18.3 ± 0.762 µg/mL (≈ 47.9 µM) | 18.4 ± 0.87 µg/mL (≈ 48.2 µM) | 35.2 ± 2.33 µg/mL (≈ 92.1 µM) | 36 µg/mL (≈ 94.1 µM) | 28.1 ± 4.02 µg/mL (≈ 73.4 µM) | CCC/C=C1\OC(=O)C2=CC3CC[C@]21C1C2=C(CC[C@@H]31)C(CCCC)OC2=O (stereo partly drawn) [S5] | 4.04 µg/mL (≈ 10.6 µM) | – | – | 75.8 µg/mL (≈ 198 µM) | 236.32 ± 24.02 ng/ml/10^6 cells | 36.7% | 19.8 ± 1.05 µg/mL (≈ 51.8 µM) | – | – |
| 22.6 ± 3.01 µg/mL (≈ 57.3 µM) | 22.4 ± 2.03 µg/mL (≈ 56.9 µM) | 13 ± 2.5 µg/mL (≈ 32.9 µM) | 24 ± 1.87 µg/mL (≈ 60.8 µM) | 24.5 ± 2.09 µg/mL (≈ 62.1 µM) | 30 µg/mL (≈ 76.1 µM) | 11.8 ± 0.995 µg/mL (≈ 29.9 µM) | 10.3 ± 0.597 µg/mL (≈ 26.2 µM) | 23 ± 2.76 µg/mL (≈ 58.2 µM) | 26.3 µg/mL (≈ 66.6 µM) | 24 ± 2.66 µg/mL (≈ 60.8 µM) | CCC/C=C1\OC(=O)C2=C1CCC1C2C2(OC(=O)C3=C2CCC=C3)C1(C)CCC (stereo not drawn) [S6] | 4.27 µg/mL (≈ 10.8 µM) | – | – | 136 µg/mL (≈ 344 µM) | 237.25 ± 22.38 ng/ml/10^6 cells | 36.4% | 12.2 ± 2.15 µg/mL (≈ 31 µM) | the best effect | significant tumor inhibition effects |
